Earlier results on two compounds are cited in patent publication US20100047176A1, “Method and Kit for Testing Stress Effects in Living Organisms” (AARHUS UNIVERSITET, priority 2007, published 2010).

Structures are written as SMILES. Values after ≈ are worked out from the molar mass of the structure shown.

The conditions of data set [1]: at 25° C.
In data set [2] the test system is fish and aquatic invertebrates. The settings on record: if it reaches water bodies.

As for `O=C(O)CNCP(=O)(O)O` [Glyphosate], in data set [1], the water solubility was 11.6 mg/mL (≈ 68.6 mM).

Take `CCC(CC)Nc1c([N+](=O)[O-])cc(C)c(C)c1[N+](=O)[O-]` [Pendimethalin]: in data set [2], the “toxicity to fish / aquatic invertebrates” value is recorded as “toxic to fish”.
